Measurements from patent publication US7074789B2, “Kinase inhibitors” (Amgen Inc., priority 1999, dated 2006).

What was measured:
Format in all cases: biochemical
[1] = biological target: T1, c-Met (Homo sapiens, UniProt P08581); assay: Kinase inhibition assay (33P transfer), c-Met; conditions: Table 2, kinase inhibition class; for IC50: read-out: Met-1
T1 construct: Kinases are expressed as either kinase domains or full length constructs; made in house
In short: (§1)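 GST/His-fusion kinases, E. coli or High Five expressed, affinity purified; 33P-ATP, plate-coated poly(Glu,Tyr) 4:1 or poly(Arg,Ser) 3:1; 0.5% H3PO4 wash, scintillant, LSC.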

[2] = biological target: T2, PDGFRB (Homo sapiens, UniProt P09619); assay: Kinase inhibition assay (33P transfer), PDGFRB; conditions: for IC50: read-out: PDGFRB-1
T2 construct: Kinases are expressed as either kinase domains or full length constructs; made in house

[3] = biological target: T3, ErbB2 (Homo sapiens, UniProt P04626); assay: Kinase inhibition assay (33P transfer), ErbB2; conditions: for IC50: read-out: ErbB2-2
T3 construct: Kinases are expressed as either kinase domains or full length constructs; made in house
Text: The inhibitor compounds described herein are screened in the following manner. Kinases suitable for use in the following protocol to determine kinase activity of the compounds described herein include, -but are not limited to: Lck, Lyn, Src, Fyn, Syk, Zap-70, Itk, Tec, Btk, EGFR, ErbB2, Kdr, Flt-1, Flt-3, Tek, c-Met, InsR, and AKT.
Kinases are expressed as either kinase domains or full length constructs fused to glutathione S-transferase (GST) or polyHistidine tagged fusion proteins in either E. colior Baculovirus-High Five expression systems. They are purified to near homogeneity by affinity chromatography essentially as previously described (Lehr et al., 1996; Gish et al., 1995). In some instances, kinases are co-expressed or mixed with purified or partially purified regulatory polypeptides prior to measurement of activity.
Kinase activity and inhibition are measured essentially by established protocols (Braunwalder et al., 1996). Briefly, The transfer of ^33PO4 from ATP to the synthetic substrates poly(Glu, Tyr) 4:1 or poly(Arg, Ser) 3:1 attached to the bioactive surface of microtiter plates serves as the basis to evaluate enzyme activity. After an incubation period, the amount of phosphate transferred is measured by first washing the plate with 0.5% phosphoric acid, adding liquid scintillant, and then counting in a liquid scintillation detector. The IC50 is determined by the concentration of compound that causes a 50% reduction in the amount of […] incorporated onto the substrate bound to the plate.

[4] = biological target: T4, Kdr (Homo sapiens, UniProt P35968); assay: Kinase inhibition assay (33P transfer), Kdr; conditions: for IC50: read-out: KDR-1
T4 construct: Kinases are expressed as either kinase domains or full length constructs; made in house
In short: (§2)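 Activity was read as 33P incorporation, counted by liquid scintillation after a 0.5% phosphoric acid wash, into poly(Glu,Tyr) 4:1 or poly(Arg,Ser) 3:1 substrates coated on plates. Enzymes were tagged (GST or polyHis) kinase domains or full-length proteins from bacterial or insect-cell expression, sometimes with regulatory polypeptides.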

[5] = biological target: T5, Itk (Homo sapiens, UniProt Q08881); assay: Kinase inhibition assay (33P transfer), Itk; conditions: for IC50: read-out: Itk-1
T5 construct: Kinases are expressed as either kinase domains or full length constructs; made in house
T5 sequence (Q08881 1-620): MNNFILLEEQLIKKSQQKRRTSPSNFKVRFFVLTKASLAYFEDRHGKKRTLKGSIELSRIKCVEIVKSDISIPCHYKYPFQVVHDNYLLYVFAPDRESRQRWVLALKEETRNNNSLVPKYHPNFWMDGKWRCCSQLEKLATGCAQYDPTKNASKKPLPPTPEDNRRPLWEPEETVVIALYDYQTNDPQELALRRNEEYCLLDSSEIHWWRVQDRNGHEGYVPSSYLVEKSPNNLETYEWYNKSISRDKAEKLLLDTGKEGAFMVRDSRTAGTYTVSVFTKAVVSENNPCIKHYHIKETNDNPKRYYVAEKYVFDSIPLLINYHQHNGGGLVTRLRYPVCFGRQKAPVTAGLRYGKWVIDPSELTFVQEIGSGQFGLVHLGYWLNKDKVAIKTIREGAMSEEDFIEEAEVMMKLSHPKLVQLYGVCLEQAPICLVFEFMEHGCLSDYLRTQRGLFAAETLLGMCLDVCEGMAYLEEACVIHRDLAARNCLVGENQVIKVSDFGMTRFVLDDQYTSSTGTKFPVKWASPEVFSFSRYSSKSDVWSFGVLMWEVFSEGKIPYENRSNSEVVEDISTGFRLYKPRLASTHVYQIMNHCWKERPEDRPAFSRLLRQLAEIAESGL
In short: as §1

[6] = biological target: T6, Lck (Homo sapiens, UniProt P06239); assay: Kinase inhibition assay (33P transfer), Lck; conditions: for IC50: read-out: Lck-1
T6 construct: Kinases are expressed as either kinase domains or full length constructs; made in house
In short: as §2

[7] = biological target: T7, IGFR-1 (Homo sapiens, UniProt P08069); assay: Kinase inhibition assay, IGFR-1 (Table 2); conditions: Table 2, kinase inhibition class
T7 construct: Kinases are expressed as either kinase domains or full length constructs; made in house

[8] = biological target: T8, AKT (Homo sapiens, UniProt Q9Y243); assay: Kinase inhibition assay (33P transfer), AKT; conditions: Table 2, kinase inhibition class; for IC50: read-out: AKT3-1
T8 construct: Kinases are expressed as either kinase domains or full length constructs; made in house
In short: as §2

[9] = biological target: T9, Zap-70 (Homo sapiens, UniProt P43403); assay: Kinase inhibition assay (33P transfer), Zap-70; conditions: for IC50: read-out: Zap-1
T9 construct: Kinases are expressed as either kinase domains or full length constructs; made in house
T9 sequence (P43403 1-619): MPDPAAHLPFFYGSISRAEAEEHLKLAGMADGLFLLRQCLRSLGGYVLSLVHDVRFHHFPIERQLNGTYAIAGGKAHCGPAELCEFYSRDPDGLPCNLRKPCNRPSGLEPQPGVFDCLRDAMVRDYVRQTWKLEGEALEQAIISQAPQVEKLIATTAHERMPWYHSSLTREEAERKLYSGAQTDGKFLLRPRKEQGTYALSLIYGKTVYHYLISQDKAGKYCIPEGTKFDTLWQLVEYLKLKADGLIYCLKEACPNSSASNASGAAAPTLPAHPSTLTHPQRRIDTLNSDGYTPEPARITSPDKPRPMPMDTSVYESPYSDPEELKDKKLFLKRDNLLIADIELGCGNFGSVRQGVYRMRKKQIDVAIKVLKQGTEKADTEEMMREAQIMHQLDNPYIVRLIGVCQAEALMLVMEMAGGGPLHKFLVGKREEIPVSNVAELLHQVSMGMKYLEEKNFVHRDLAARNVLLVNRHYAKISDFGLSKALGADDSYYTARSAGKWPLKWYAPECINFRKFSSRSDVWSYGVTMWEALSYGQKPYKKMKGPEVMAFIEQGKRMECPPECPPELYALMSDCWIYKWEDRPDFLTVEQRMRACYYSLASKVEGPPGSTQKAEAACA
In short: as §2

[10] = biological target: T10, EGFR (Homo sapiens, UniProt P00533); assay: Kinase inhibition assay (33P transfer), EGFR; conditions: Table 2, kinase inhibition class; for IC50: read-out: EGFR-1
T10 construct: Kinases are expressed as either kinase domains or full length constructs; made in house
In short: as §1

T8 sequence (Q9Y243 whole entry, the tested form may be a part): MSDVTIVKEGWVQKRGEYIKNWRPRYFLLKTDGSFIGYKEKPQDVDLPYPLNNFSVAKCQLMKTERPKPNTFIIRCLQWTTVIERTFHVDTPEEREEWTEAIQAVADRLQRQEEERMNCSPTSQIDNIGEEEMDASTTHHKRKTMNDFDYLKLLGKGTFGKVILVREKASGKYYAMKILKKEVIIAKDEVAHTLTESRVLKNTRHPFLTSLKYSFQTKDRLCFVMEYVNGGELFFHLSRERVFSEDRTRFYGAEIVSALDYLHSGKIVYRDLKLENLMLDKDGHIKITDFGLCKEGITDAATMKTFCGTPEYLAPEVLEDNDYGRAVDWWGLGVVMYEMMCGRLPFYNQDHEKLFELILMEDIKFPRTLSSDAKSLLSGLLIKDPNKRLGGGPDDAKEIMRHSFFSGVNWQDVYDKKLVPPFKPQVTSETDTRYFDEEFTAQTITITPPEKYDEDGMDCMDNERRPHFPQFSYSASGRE
T4 sequence (P35968 20-1356, species assumed): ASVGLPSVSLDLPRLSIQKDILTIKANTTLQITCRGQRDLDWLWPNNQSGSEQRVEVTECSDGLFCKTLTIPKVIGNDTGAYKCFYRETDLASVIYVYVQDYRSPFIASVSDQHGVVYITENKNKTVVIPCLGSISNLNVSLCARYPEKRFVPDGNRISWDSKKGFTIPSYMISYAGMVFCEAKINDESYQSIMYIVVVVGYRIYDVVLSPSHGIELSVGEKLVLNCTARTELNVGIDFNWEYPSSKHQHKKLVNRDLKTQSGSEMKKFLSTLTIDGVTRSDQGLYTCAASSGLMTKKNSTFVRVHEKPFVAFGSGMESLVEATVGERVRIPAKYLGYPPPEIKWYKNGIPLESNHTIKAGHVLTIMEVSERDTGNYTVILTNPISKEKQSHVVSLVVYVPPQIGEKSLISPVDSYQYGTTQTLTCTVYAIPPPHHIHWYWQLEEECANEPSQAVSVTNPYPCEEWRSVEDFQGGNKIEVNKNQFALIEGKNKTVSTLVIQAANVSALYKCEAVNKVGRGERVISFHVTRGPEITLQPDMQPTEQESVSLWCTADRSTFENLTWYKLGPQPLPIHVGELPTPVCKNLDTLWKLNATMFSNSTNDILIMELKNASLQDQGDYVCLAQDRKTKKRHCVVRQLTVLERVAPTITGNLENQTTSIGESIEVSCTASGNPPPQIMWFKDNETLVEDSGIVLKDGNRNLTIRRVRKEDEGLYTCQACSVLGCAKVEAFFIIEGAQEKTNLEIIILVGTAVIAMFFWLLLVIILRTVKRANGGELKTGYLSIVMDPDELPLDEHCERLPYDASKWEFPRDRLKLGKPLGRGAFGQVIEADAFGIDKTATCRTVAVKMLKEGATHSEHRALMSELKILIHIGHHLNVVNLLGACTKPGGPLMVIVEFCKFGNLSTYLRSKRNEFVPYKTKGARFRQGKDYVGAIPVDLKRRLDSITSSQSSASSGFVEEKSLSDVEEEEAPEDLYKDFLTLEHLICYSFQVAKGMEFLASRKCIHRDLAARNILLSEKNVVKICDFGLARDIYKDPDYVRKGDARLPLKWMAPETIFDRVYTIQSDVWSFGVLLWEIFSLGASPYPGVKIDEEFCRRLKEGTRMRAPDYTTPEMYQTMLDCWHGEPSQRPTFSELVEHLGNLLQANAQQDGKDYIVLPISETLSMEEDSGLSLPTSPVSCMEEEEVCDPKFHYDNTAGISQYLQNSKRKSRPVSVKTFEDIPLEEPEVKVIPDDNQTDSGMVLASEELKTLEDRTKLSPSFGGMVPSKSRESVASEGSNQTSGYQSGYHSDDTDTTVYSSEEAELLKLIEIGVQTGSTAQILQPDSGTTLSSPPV
T3 sequence (P04626 23-1255, species assumed): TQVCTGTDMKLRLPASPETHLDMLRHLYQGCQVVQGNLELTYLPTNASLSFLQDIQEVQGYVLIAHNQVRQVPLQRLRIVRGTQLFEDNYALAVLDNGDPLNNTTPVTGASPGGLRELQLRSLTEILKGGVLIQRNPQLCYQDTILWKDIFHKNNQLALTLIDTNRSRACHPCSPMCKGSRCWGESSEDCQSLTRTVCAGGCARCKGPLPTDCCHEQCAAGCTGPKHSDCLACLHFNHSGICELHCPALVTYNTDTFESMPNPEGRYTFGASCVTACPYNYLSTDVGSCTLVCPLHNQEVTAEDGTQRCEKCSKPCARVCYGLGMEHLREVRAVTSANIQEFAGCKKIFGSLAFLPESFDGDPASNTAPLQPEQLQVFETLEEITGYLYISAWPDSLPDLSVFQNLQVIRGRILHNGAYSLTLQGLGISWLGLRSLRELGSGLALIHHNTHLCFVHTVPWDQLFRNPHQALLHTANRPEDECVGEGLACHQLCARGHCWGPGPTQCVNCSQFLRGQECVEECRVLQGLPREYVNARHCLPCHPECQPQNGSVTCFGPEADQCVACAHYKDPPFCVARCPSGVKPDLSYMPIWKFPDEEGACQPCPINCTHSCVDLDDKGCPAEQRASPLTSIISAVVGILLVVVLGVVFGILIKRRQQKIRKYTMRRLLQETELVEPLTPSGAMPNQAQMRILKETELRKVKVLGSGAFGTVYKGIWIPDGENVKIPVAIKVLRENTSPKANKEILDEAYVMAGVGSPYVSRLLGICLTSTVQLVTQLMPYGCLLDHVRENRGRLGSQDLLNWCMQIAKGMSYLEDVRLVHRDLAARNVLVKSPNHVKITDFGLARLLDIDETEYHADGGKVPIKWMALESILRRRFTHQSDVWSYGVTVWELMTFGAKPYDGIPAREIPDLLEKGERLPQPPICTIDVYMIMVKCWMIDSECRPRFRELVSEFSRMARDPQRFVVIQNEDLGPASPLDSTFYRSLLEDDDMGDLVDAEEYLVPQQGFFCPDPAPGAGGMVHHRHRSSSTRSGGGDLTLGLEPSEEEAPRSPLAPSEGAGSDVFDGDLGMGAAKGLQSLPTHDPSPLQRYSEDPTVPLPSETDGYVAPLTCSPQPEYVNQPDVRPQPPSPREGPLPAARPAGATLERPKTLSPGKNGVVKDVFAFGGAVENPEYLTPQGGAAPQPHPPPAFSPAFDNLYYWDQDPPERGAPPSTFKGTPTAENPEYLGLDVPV
T7 sequence (P08069 31-1367): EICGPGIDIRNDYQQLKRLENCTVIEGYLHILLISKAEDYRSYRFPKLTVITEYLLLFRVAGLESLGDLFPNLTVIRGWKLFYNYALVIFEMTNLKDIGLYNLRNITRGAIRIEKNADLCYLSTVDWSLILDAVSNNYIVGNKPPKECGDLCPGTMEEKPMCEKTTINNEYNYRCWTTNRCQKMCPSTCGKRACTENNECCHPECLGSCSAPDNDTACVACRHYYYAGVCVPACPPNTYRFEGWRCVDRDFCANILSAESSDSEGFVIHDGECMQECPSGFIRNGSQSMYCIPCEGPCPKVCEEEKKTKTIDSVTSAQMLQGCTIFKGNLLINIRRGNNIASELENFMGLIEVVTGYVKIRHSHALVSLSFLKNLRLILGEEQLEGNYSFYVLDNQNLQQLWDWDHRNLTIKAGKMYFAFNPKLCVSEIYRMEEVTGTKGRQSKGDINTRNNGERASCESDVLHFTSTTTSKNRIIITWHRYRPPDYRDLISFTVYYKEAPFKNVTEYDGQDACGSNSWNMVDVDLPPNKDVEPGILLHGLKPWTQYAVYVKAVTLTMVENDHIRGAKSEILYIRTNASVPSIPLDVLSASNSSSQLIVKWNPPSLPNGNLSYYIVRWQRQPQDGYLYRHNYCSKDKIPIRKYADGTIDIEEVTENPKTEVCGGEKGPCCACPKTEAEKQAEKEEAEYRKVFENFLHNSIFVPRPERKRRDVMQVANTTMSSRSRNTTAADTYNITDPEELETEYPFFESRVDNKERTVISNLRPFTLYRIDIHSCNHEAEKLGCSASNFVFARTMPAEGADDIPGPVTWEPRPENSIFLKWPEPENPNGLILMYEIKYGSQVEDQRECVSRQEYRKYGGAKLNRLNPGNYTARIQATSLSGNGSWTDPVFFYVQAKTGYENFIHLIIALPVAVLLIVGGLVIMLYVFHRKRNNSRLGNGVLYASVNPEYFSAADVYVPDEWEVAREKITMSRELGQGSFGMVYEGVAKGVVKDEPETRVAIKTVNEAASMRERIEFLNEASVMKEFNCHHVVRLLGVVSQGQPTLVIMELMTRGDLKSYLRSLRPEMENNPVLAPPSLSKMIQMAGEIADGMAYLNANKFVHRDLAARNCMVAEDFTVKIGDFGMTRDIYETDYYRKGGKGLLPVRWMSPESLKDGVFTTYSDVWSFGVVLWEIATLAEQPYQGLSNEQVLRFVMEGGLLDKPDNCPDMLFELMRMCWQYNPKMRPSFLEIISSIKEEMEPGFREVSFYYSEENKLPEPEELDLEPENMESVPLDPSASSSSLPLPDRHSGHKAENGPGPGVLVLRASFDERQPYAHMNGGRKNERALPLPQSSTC
T6 sequence (P06239 whole entry, species assumed, the tested form may be a part): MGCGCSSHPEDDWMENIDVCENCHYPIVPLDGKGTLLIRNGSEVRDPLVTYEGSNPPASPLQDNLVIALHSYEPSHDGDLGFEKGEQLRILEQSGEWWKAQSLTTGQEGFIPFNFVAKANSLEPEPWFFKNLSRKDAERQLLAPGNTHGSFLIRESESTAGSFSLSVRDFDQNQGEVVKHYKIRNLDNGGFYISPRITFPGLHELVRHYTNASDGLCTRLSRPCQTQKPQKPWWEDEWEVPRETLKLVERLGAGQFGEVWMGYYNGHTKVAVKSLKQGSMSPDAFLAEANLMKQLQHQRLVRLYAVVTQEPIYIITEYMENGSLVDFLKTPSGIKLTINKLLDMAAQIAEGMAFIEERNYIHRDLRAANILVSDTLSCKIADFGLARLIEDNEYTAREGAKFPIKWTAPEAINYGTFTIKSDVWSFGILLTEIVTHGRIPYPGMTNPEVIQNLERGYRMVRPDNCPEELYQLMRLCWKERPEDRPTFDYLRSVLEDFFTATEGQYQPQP

| Structure (SMILES) | IC50 [1] [µM] | IC50 [2] [µM] | IC50 [3] [nM] | IC50 [4] [µM] | IC50 [5] [µM] | IC50 [6] [µM] | IC50 [7] [µM] | IC50 [8] [µM] | IC50 [9] [µM] | IC50 [10] [nM] | Met-1 [1] | PDGFRB-1 [2] | ErbB2-2 [3] | KDR-1 [4] | Itk-1 [5] | Lck-1 [6] | IGFR-1 [7] | AKT3-1 [8] | Zap-1 [9] | EGFR-1 [10] |
| --- | --- | --- | --- | --- | --- | --- | --- | --- | --- | --- | --- | --- | --- | --- | --- | --- | --- | --- | --- | --- |
| c1ccc(CNc2nc3ccccc3n2-c2ncnc(Nc3cccc(Cc4nnn[nH]4)c3)n2)cc1 [Compound 957] | 0.841 to 5.05 | < 0.841 | < 841 | < 0.841 | 0.841 to 5.05 | 0.841 to 5.05 | 0.841 to 5.05 | 0.841 to 5.05 | 5.05 to 7.36 | < 841 |  |  |  |  |  |  |  |  |  |  |
| COc1ccc(Nc2ncnc(NCCC#N)n2)cc1OC [Compound 787] | > 15 | > 15 | > 15000 | > 15 | > 15 | > 15 | > 15 | > 15 | > 15 | > 15000 |  |  |  |  |  |  |  |  |  |  |
| Fc1ccc(Nc2ncnc(Nc3ccc4[nH]ccc4c3)n2)cc1Cl [Compound 715] |  |  |  |  |  |  |  |  |  |  | C (C>2.4 and <3.5 ug/mL) | B (B>0.4 and <2.4 ug/mL) | B (B>0.4 and <2.4 ug/mL) | B (B>0.4 and <2.4 ug/mL) | D (D>3.5 and <4.5 ug/mL) | E (E>4.5 ug/mL) | B (B>0.4 and <2.4 ug/mL) | D (D>3.5 and <4.5 ug/mL) | C (C>2.4 and <3.5 ug/mL) | A (A<0.4 ug/mL) |
| Cc1ccc2c(c1)CCCN2c1ncnc(Nc2cccc(CO)c2)n1 [Compound 770] | < 1.15 | < 1.15 | < 1150 | 1.15 to 6.91 | > 13 | < 1.15 | 10.1 to 13 | > 13 | > 13 | < 1150 |  |  |  |  |  |  |  |  |  |  |
| COc1ccc(Cl)cc1Nc1ncnc(Nc2cc(OC)c(OC)c(OC)c2)n1 [Compound 627] | 8.38 to 10.8 | < 0.957 | 957 to 5740 | 0.957 to 5.74 | 0.957 to 5.74 | < 0.957 | < 0.957 | > 10.8 | > 10.8 | 957 to 5740 |  |  |  |  |  |  |  |  |  |  |

Now from value to compound, other results behind:

| IC50 [1] [µM] | IC50 [2] [µM] | IC50 [3] [nM] | IC50 [4] [µM] | IC50 [5] [µM] | IC50 [6] [µM] | IC50 [7] [µM] | IC50 [8] [µM] | IC50 [9] [µM] | IC50 [10] [nM] | Structure (SMILES) | Met-1 [1] | PDGFRB-1 [2] | ErbB2-2 [3] | KDR-1 [4] | Itk-1 [5] | Lck-1 [6] | IGFR-1 [7] | AKT3-1 [8] | Zap-1 [9] | EGFR-1 [10] |
| --- | --- | --- | --- | --- | --- | --- | --- | --- | --- | --- | --- | --- | --- | --- | --- | --- | --- | --- | --- | --- |
| 1.14 to 6.84 | 1.14 to 6.84 | < 1140 | 1.14 to 6.84 | > 12.8 | 1.14 to 6.84 | 1.14 to 6.84 | > 12.8 | > 12.8 | < 1140 | CN(c1cccc(Cl)c1)c1ncnc(Nc2ccc3[nH]ccc3c2)n1 [Compound 714] |  |  |  |  |  |  |  |  |  |  |
| 6.48 to 9.45 | 9.45 to 12.2 | 1080 to 6480 | > 12.2 | > 12.2 | 6.48 to 9.45 | > 12.2 | > 12.2 | > 12.2 | < 1080 | Cc1cccc(Nc2ncnc(N(C)c3cccc(Br)c3)n2)c1 [Compound 666] |  |  |  |  |  |  |  |  |  |  |
| > 11.3 | > 11.3 | > 11300 | > 11.3 | > 11.3 | > 11.3 | > 11.3 | > 11.3 | > 11.3 | 1010 to 6030 | CN(c1cccc(Cl)c1)c1ncnc(Nc2ccc(F)c(C(F)(F)F)c2)n1 [Compound 742] |  |  |  |  |  |  |  |  |  |  |
